# Laboratory results from patent US10294202B2, “Pyrrolidinones as herbicides” (FMC Corporation, priority 2013, dated 2019).
# Columns and labels:
# [1] = tested on: galium; assay: Test A postemergence herbicide test; type: in vivo, Galium aparine
# In short: (§1)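 Potted in loam soil/sand blend; postemergence application at 1–2 leaf stage (2–10 cm). Greenhouse ~10 d. Visual injury vs untreated, 0–100 scale; 100 = complete control.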
# [2] = tested on: sedge, umbrella; assay: Test C flooded paddy test; type: in vivo, Cyperus difformis; conditions: Flood
# In short: (§2)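 Ratings reflect visual comparison with controls on a 0–100 scale, where 100 is complete control. Compound is dosed into standing paddy water 3 cm deep over 2-leaf-stage plants, kept in the greenhouse 13 to 15 days.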
# [3] = tested on: ragweed; assay: Test A pre-/postemergence herbicide test; type: in vivo, Ambrosia elatior
# In short: (§3)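 Visual 0–100 ratings (100 = complete control) made about 10 days after treatment, greenhouse-held plants compared with untreated controls. Treatments: postemergence sprays on one- to two-leaf plants (2–10 cm tall) and preemergence directed soil sprays after planting in loam–sand, chemicals formulated in non-phytotoxic solvent containing surfactant.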
# [4] = tested on: kochia; assay: Test A pre-/postemergence herbicide test; type: in vivo, Kochia scoparia
# In short: as §3
# [5] = tested on: ducksalad; assay: Test C flooded paddy test; type: in vivo, Heteranthera limosa; conditions: Flood
# In short: as §2
# [6] = tested on: blackgrass; assay: Test A postemergence herbicide test; type: in vivo, Alopecurus myosuroides
# In short: as §1
# [7] = tested on: rice; assay: Test C flooded paddy test; type: in vivo, Oryza sativa; conditions: Flood
# In short: as §2
# [8] = tested on: barnyardgrass; assay: Test C flooded paddy test; type: in vivo, Echinochloa crus-galli; conditions: Flood
# In short: as §2
# [9] = tested on: velvetleaf; assay: Test A pre-/postemergence herbicide test; type: in vivo, Abutilon theophrasti
# In short: as §3
# [10] = tested on: morningglory; assay: Test A pre-/postemergence herbicide test; type: in vivo, Ipomoea spp.
# In short: as §3
# [11] = tested on: crabgrass, large; assay: Test A pre-/postemergence herbicide test; type: in vivo, Digitaria sanguinalis
# In short: as §3
# [12] = 125 g ai/ha, visual rating on 0 to 100 scale (0 no effect, 100 complete control), approx. 10 days
# [13] = 500 g ai/ha, 0 to 100 scale (0 no effect, 100 complete control)
# [14] = 31 g ai/ha, scale of 0 to 100 where 0 is no effect and 100 is complete control, 13 to 15 days
# [15] = 62 g ai/ha, scale of 0 to 100 where 0 is no effect and 100 is complete control, 13 to 15 days
# [16] = 125 g ai/ha, scale of 0 to 100 where 0 is no effect and 100 is complete control, 13 to 15 days
# [17] = 250 g ai/ha, scale of 0 to 100 where 0 is no effect and 100 is complete control, 13 to 15 days
# [18] = Postemergence, 125 g ai/ha, visual rating on 0 to 100 scale (0 no effect, 100 complete control), approx. 10 days
# [19] = Postemergence, 500 g ai/ha, 0 to 100 scale (0 no effect, 100 complete control)
# [20] = Preemergence, 125 g ai/ha, 0 to 100 scale where 0 is no effect and 100 is complete control
# [21] = Preemergence, 500 g ai/ha, visual rating on 0 to 100 scale (0 no effect, 100 complete control)
# [22] = Postemergence, 125 g ai/ha, 0 to 100 scale, 0 is no effect, 100 is complete control
# [23] = preemergence, 500 g ai/ha, 0 to 100 scale, 0 is no effect and 100 is complete control
# [24] = Postemergence, 125 g ai/ha, 0 to 100 scale, 0 no effect, 100 complete control
# [25] = Preemergence, 125 g ai/ha, visual rating on 0 to 100 scale (0 no effect, 100 complete control)
# [26] = preemergence, 500 g ai/ha, 0 to 100 scale
smiles,measurement,setting,value
O=C1NCC(c2cccc(OC(F)F)c2)C1C(=O)Nc1cccc(F)c1F (stereo not drawn) [Compound 324],"Plant response rating, Galium",[1]; [12],40
same,"Plant response rating, Galium",[1]; [13],60
same,"Plant response rating, Sedge, Umbrella",[2]; [14],0
same,"Plant response rating, Sedge, Umbrella",[2]; [15],0
same,"Plant response rating, Sedge, Umbrella",[2]; [16],0
same,"Plant response rating, Sedge, Umbrella",[2]; [17],0
same,"Plant response rating, Ragweed",[3]; [18],20
same,"Plant response rating, Ragweed",[3]; [19],50
same,"Plant response rating, Ragweed",[3]; [20],30
same,Ragweed plant response rating,[3]; [21],60
same,"Plant response rating, Kochia",[4]; [18],50
same,"Plant response rating, Kochia",[4]; [19],80
same,"Plant response rating, Kochia",[4]; [20],70
same,Kochia plant response rating,[4]; [21],80
same,"Plant response rating, Ducksalad",[5]; [14],40
same,"Plant response rating, Ducksalad",[5]; [15],70
same,"Plant response rating, Ducksalad",[5]; [16],95
same,"Plant response rating, Ducksalad",[5]; [17],100
same,"Plant response rating, Blackgrass",[6]; [12],60
same,"Plant response rating, Blackgrass",[6]; [13],70
same,"Plant response rating, Rice",[7]; [14],0
same,"Plant response rating, Rice",[7]; [15],0
same,"Plant response rating, Rice",[7]; [16],0
same,"Plant response rating, Rice",[7]; [17],0
same,"Plant response rating, Barnyardgrass",[8]; [14],0
same,"Plant response rating, Barnyardgrass",[8]; [15],0
same,"Plant response rating, Barnyardgrass",[8]; [16],60
same,"Plant response rating, Barnyardgrass",[8]; [17],70
O=C1NCC(c2ccc(C(F)(F)F)c(F)c2)C1C(=O)Nc1cccc(F)c1F (racemic) [Compound 247],"Plant response rating, Sedge, Umbrella",[2]; [17],0
same,"Plant response rating, Sedge, Umbrella","[2]; 500 g ai/ha, scale 0 to 100",0
same,"Plant response rating, Sedge, Umbrella","[2]; 1000 g ai/ha, scale 0 to 100",0
same,"Plant response rating, Sedge, Umbrella","[2]; 2000 g ai/ha, scale 0 to 100",0
same,"Plant response rating, Velvetleaf",[9]; [22],0
same,"Plant response rating, Velvetleaf",[9]; [19],0
same,"Plant response rating, Velvetleaf",[9]; [20],0
same,"Plant response rating, Velvetleaf",[9]; [23],0
same,"Plant response rating, Morningglory",[10]; [22],0
same,"Plant response rating, Morningglory",[10]; [19],0
same,"Plant response rating, Morningglory",[10]; [20],0
same,"Plant response rating, Morningglory",[10]; [23],0
same,"Plant response rating, Ducksalad",[5]; [17],75
same,"Plant response rating, Ducksalad","[5]; 500 g ai/ha, scale 0 to 100",85
same,"Plant response rating, Ducksalad","[5]; 1000 g ai/ha, scale 0 to 100",100
same,"Plant response rating, Ducksalad","[5]; 2000 g ai/ha, scale 0 to 100",100
same,"Plant response rating, Crabgrass, Large",[11]; [22],50
same,"Plant response rating, Crabgrass, Large",[11]; [19],70
same,"Plant response rating, Crabgrass, Large",[11]; [20],90
same,"Plant response rating, Crabgrass, Large",[11]; [23],90
same,"Plant response rating, Rice",[7]; [17],0
same,"Plant response rating, Rice","[7]; 500 g ai/ha, scale 0 to 100",0
same,"Plant response rating, Rice","[7]; 1000 g ai/ha, scale 0 to 100",0
same,"Plant response rating, Rice","[7]; 2000 g ai/ha, scale 0 to 100",15
same,"Plant response rating, Barnyardgrass",[8]; [17],25
same,"Plant response rating, Barnyardgrass","[8]; 500 g ai/ha, scale 0 to 100",35
same,"Plant response rating, Barnyardgrass","[8]; 1000 g ai/ha, scale 0 to 100",70
same,"Plant response rating, Barnyardgrass","[8]; 2000 g ai/ha, scale 0 to 100",80
O=C1NCC(c2ccc(F)c(F)c2)C1C(=O)Nc1cccc(F)c1 (racemic) [Compound 12],"Plant response rating, Sedge, Umbrella",[2]; [14],0
same,"Plant response rating, Sedge, Umbrella",[2]; [15],0
same,"Plant response rating, Sedge, Umbrella",[2]; [16],0
same,"Plant response rating, Sedge, Umbrella","[2]; 250 g ai/ha, scale 0 to 100",0
same,"Plant response rating, Velvetleaf",[9]; [24],0
same,"Plant response rating, Velvetleaf",[9]; [19],20
same,Velvetleaf plant response rating,[9]; [25],0
same,"Plant response rating, Velvetleaf",[9]; [26],0
same,"Plant response rating, Morningglory",[10]; [24],0
same,"Plant response rating, Morningglory",[10]; [19],0
same,Morningglory plant response rating,[10]; [25],0
same,"Plant response rating, Morningglory",[10]; [26],0
same,"Plant response rating, Ducksalad",[5]; [14],0
same,"Plant response rating, Ducksalad",[5]; [15],0
same,"Plant response rating, Ducksalad",[5]; [16],0
same,"Plant response rating, Ducksalad","[5]; 250 g ai/ha, scale 0 to 100",0
same,"Plant response rating, Crabgrass, Large",[11]; [24],80
same,"Plant response rating, Crabgrass, Large",[11]; [19],90
same,"Crabgrass, Large plant response rating",[11]; [25],90
same,"Plant response rating, Crabgrass, Large",[11]; [26],90
same,"Plant response rating, Rice",[7]; [14],0
same,"Plant response rating, Rice",[7]; [15],0
same,"Plant response rating, Rice",[7]; [16],0
same,"Plant response rating, Rice","[7]; 250 g ai/ha, scale 0 to 100",0
same,"Plant response rating, Barnyardgrass",[8]; [14],0
same,"Plant response rating, Barnyardgrass",[8]; [15],0
same,"Plant response rating, Barnyardgrass",[8]; [16],0
same,"Plant response rating, Barnyardgrass","[8]; 250 g ai/ha, scale 0 to 100",65
